Test results from ChEMBL document CHEMBL3244194, “beta-Adrenoceptor blocking activity of halogenated thienylethanolamine derivatives” (J Med Chem, 1977).
Calls of active or inactive are those of the source. No cut-off for these calls is given here.

Key:
Rattus norvegicus [1] = assay: In vivo inhibition of beta-adrenoceptor in Wistar rat assessed as inhibition of isoproterenol-induced tachycardia at 4 mg/kg, iv relative to control; format: functional
[2] = Acute toxicity in iv dosed mouse; conditions: in vivo
Rattus norvegicus [3] = assay: In vivo inhibition of beta-adrenoceptor in Wistar rat assessed as decrease in heart rate at 4 mg/kg, iv relative to control; format: functional
Felis catus [4] = assay: In vivo inhibition of beta-adrenoceptor in cat assessed as inhibition of isoproterenol-induced tachycardia at 0.1 mg/kg, iv relative to control; format: functional
Mus musculus [5] = assay: Local anesthetic activity in ICR Swiss mouse assessed as inhibition of pain reflex response at 0.5%, id relative to control; format: functional
Mus musculus [6] = assay: Local anesthetic activity in ICR Swiss mouse assessed as inhibition of pain reflex response at 1%, id relative to control; format: functional, organism-based
Felis catus [7] = assay: In vivo inhibition of beta-adrenoceptor in cat assessed as inhibition of isoproterenol-induced hypotension at 0.1 mg/kg, iv relative to control; format: functional
Felis catus [8] = assay: In vivo inhibition of beta-adrenoceptor in cat assessed as inhibition of isoproterenol-induced tachycardia at 1 mg/kg, iv relative to control; format: functional
Felis catus [9] = assay: In vivo inhibition of beta-adrenoceptor in cat assessed as inhibition of isoproterenol-induced hypotension at 1 mg/kg, iv relative to control; format: functional
Cavia porcellus [10] = assay: In vivo inhibition of beta-adrenoceptor in histamine-treated guinea pig assessed as inhibition of isoproterenol-induced bronchodilator effect at 0.1 mg/kg, iv administered 3 mins prior to histamine/isoproterenol challenge relative to control; format: functional
Cavia porcellus [11] = assay: In vivo inhibition of beta-adrenoceptor in histamine-treated guinea pig assessed as inhibition of isoproterenol-induced bronchodilator effect at 0.01 mg/kg, iv administered 3 mins prior to histamine/isoproterenol challenge relative to control; format: functional, organism-based; set-up: dose 0.01 mg/kg
Felis catus [12] = assay: In vivo inhibition of beta-adrenoceptor in cat assessed as inhibition of isoproterenol-induced tachycardia at 0.05 mg/kg, iv relative to control; format: functional

SMILES | inhibition in vivo at 4 mg/kg (Rattus norvegicus [1]) | LD50 [2] | inhibition in vivo at 4 mg/kg (Rattus norvegicus [3]) | inhibition in vivo at 0.1 mg/kg (Felis catus [4]) | inhibition (INH) (Mus musculus [5]) | local anesthetic activity (active/inactive) (Mus musculus [6]) | inhibition in vivo at 0.1 mg/kg (Felis catus [7]) | inhibition in vivo at 1 mg/kg (Felis catus [8]) | inhibition in vivo at 1 mg/kg (Felis catus [9]) | inhibition in vivo at 0.1 mg/kg (Cavia porcellus [10]) | inhibition (Cavia porcellus [11]) | inhibition in vivo at 0.05 mg/kg (Felis catus [12])
CC(C)NCC(O)c1sccc1Cl (racemic) | 0% | 38 mg/kg | 0% |  |  |  |  |  |  |  |  | 
CC(C)NCC(O)c1sc(Br)c(Br)c1Br (racemic) | 75% | 35 mg/kg | 10% | 50% | 40% | Active | 65% | 95% | 88% |  |  | 
CC(C)(C)NCC(O)c1sc(Br)cc1Br (racemic) | 78% | 42 mg/kg | 17% | 50% | 82% | Active | 45% | 88% | 89% |  |  | 
CC(C)NCC(O)c1scc(Br)c1Br.Cl (racemic) | 92% | 27 mg/kg | 10% |  |  |  |  |  |  |  |  | 
CC(C)(C)NCC(O)c1ccc(Br)s1 (racemic) | 55.5% | 27 mg/kg | 8% |  |  |  |  |  |  |  |  | 
CC(C)(C)NCC(O)c1scc(Br)c1Br (racemic) | 95% | 28 mg/kg | 36% | 53% | 75% | Active | 64% | 92% | 97% | 100% |  | 
CC(C)(C)NCC(O)c1sc(Cl)cc1Cl (racemic) | 75% | 30 mg/kg | 32% | 65% |  |  | 55% | 74% | 65% |  |  | 
CC(C)NCC(O)c1sccc1Br (racemic) | 0% | 35 mg/kg | 0% |  |  |  |  |  |  |  |  | 
CC(C)NCC(O)c1sc(Cl)cc1Cl (racemic) | 70% | 35 mg/kg | 28% |  |  |  |  |  |  |  |  | 
CC(C)(C)NCC(O)c1sccc1Cl (racemic) | 0% | 25 mg/kg | 0% |  |  |  |  |  |  |  |  | 
CC(C)NCC(O)c1cc(Cl)cs1 (racemic) | 86% | 35 mg/kg | 8% | 62% |  |  | 57% | 90% | 75% |  |  | 
CC(C)NCC(O)c1ccc(Br)s1.Cl (racemic) | 87% | 45 mg/kg | 11% | 67.5% | 52% | Active | 50% | 82% | 72% |  |  | 
CC(C)NCC(O)COc1cccc2ccccc12 (stereo not given) [PROPRANOLOL] | 95% |  | 32% | 87% | 93% | Active | 85% | 100% | 100% | 100% | Active | 
CC(C)(C)NCC(O)c1cc(Cl)cs1 (racemic) | 53% | 38 mg/kg | 6% |  |  |  |  |  |  |  |  | 
CC(C)NCC(O)c1cc(Br)cs1 (racemic) | 89.5% | 42 mg/kg | 11% | 70% |  |  | 53% | 90% | 82% |  |  | 
CC(C)(C)NCC(O)c1cc(Br)c(Br)s1 (racemic) | 92% | 38 mg/kg | 18% | 87.5% | 100% | Active | 58% | 100% | 95% | 100% |  | 61%
CC(C)NCC(O)c1sc(Br)cc1Br (racemic) | 77.5% | 35 mg/kg | 14% |  |  |  |  |  |  |  |  | 
CC(C)(C)NCC(O)c1sccc1Br (racemic) | 12.5% | 25 mg/kg | 10% |  |  |  |  |  |  |  |  | 
CC(C)NCC(O)c1cc(Br)c(Br)s1.Cl (racemic) | 100% | 45 mg/kg | 25% | 92.5% | 72.5% | Active | 75% | 100% | 100% | 40% | inactive | 78%
CC(C)(C)NCC(O)c1cc(Br)cs1 (racemic) | 50% | 35 mg/kg | 17% | 33% |  |  | 0% | 67% | 50% | 25% |  | 
CC(C)NCC(O)c1sc(Cl)c(Cl)c1Cl (racemic) | 90% | 35 mg/kg | 20% | 58% |  |  | 52% | 100% | 85% |  |  | 
CC(C)(C)NCC(O)c1sc(Br)c(Br)c1Br (racemic) | 90% | 32 mg/kg | 12% | 72.5% |  |  | 77.5% | 100% | 100% |  |  | 
CC(C)(C)NCC(O)c1sc(Cl)c(Cl)c1Cl (racemic) | 89% | 40 mg/kg | 26% | 69% | 52% | Active | 87% | 98% | 100% | 100% |  | 
